{"source": "patent US4404230A", "about": "“4-Hydroxy-1,2-Benzisothiazol-3(2H)-one-1,1-dioxides and salts thereof” (priority 1980, dated 1983)", "key": {"rats": {"system": "rats", "assay": "Effect on diuresis in water-loaded rats", "assay_type": "in vivo, Chbb:THOM-rats", "details": "for Cl^- excretion / K^+ excretion / Na^+ excretion / Urine: 5 hours", "procedure": "Male Chbb:THOM-rats (SPF) having a body weight of 180-210 gm were kept away from food with free access to water for 24 hours before the test. Substance B was administered orally at dosages of 50, 100 and 200 mg/kg in aqua dist. solution of the rate of 1 ml/100 gm body weight to 6 animals/dose. Additionally, 4 ml water/100 gm body weight were administered orally. A control group received only the solvent and the same additional amount of water.\nFive hours after treatment, the excreted volume of urine of each group was measured, and the concentration of Na^+, K^+ and Cl^- was determined photometrically and complexometrically."}, "[1]": {"assay": "Stability of the solid substance in daylight and at 60° C.", "assay_type": "physicochemical", "details": "daylight and 60° C., absence and presence of light, 4 weeks", "procedure": "For the stability test, substance B at a concentration of 1% was dissolved in 0.1 N hydrochloric acid and kept at room temperature for 27 days. […] The solid substance was furthermore tested in daylight and at 60° C. in the absence and in the presence of light for 4 weeks."}, "[2]": {"system": "Candida albicans ATCC 10231", "assay": "Fungistasis, agar diffusion test", "assay_type": "cell-based", "details": "16,000 μg/ml", "procedure": "(§1) Substance B was tested with regard to its bacteria- and fungi-inhibiting effect by the serial dilution test and agar diffusion test."}, "Aspergillus niger [3]": {"system": "Aspergillus niger", "assay": "Fungistasis, agar diffusion test", "assay_type": "cell-based", "details": "16,000 μg/ml", "procedure": "as §1"}, "[4]": {"system": "Trychophyton mentagrophytes ATCC 9129", "assay": "Fungistasis, agar diffusion test", "assay_type": "cell-based", "details": "16,000 μg/ml", "procedure": "as §1"}, "[5]": {"system": "Salmonella typhimurium TA 1535", "assay": "Test for mutagenic effects (AMES-system)", "assay_type": "cell-based", "procedure": "(§2) Compound B was tested according to the AMES-system [Mutation Research 31, 347-364 (1975)] for mutagenic properties. In order to show the whole spectrum of induced molecular DNA-damage (base substitutions, frame-shift mutations, deletions) the auxotrophic bacterial strains Salmonella typhimurium TA 98, TA 100, TA 1535, TA 1537 and TA 1538 were used as genetic indicators.\n(§3) The tests for all microorganisms were carried out such that the effect of the test compound on a microsomal enzyme system together with the corresponding co-factors could be tested, and furthermore to determine the effect on enzyme induction. The tests were performed without an activating system and in the presence of an activating system. For the in-vitro-activation S-9 supernatants (fractions of the endoplasmatic reticulum) of normal, i.e. not pretreated rats and of rats induced by aroclor 1254 (500 mg/kg) wer used. For the S-9 induced fraction, 3 different concentrations were tested.\n(§4) Compound B was tested at concentrations of 0.25, 2.5, 5 and 10 mg/plate."}, "[6]": {"system": "Salmonella typhimurium TA 100", "assay": "Test for mutagenic effects (AMES-system)", "assay_type": "cell-based", "procedure": "as §2, §3, §4"}, "[7]": {"system": "Salmonella typhimurium TA 1538", "assay": "Test for mutagenic effects (AMES-system)", "assay_type": "cell-based", "procedure": "as §2, §3, §4"}, "[8]": {"system": "Salmonella typhimurium TA 1537", "assay": "Test for mutagenic effects (AMES-system)", "assay_type": "cell-based", "procedure": "as §2, §3, §4"}, "[9]": {"system": "Salmonella typhimurium TA 98", "assay": "Test for mutagenic effects (AMES-system)", "assay_type": "cell-based", "procedure": "as §2, §3, §4"}, "[10]": {"system": "Candida albicans ATCC 10231", "assay": "Fungistasis, serial dilution test", "assay_type": "cell-based", "details": "320 μg/ml", "procedure": "as §1"}, "Aspergillus niger [11]": {"system": "Aspergillus niger", "assay": "Fungistasis, serial dilution test", "assay_type": "cell-based", "details": "320 μg/ml", "procedure": "as §1"}, "[12]": {"system": "Trychophyton mentagrophytes ATCC 9129", "assay": "Fungistasis, serial dilution test", "assay_type": "cell-based", "details": "320 μg/ml", "procedure": "as §1"}, "[13]": {"assay": "Determination of water-solubility", "assay_type": "physicochemical"}, "taste testers": {"system": "taste testers", "assay": "Determination of the taste quality", "assay_type": "in vivo", "procedure": "The tests were performed in analogy to the method of DuBois, G. A. Crosby, R. A. Stephanson and R. E. Wingard Jr., J. Agric. […] The test compounds were used as aqueous solutions at a concentration which corresponds to an about 5% saccharose solution. As comparison compound saccharose was used. The tests were carried out under identical conditions. Only the characterization of the taste was evaluated, because the intensity was already determined in the preceding experiments. The following criteria were determined by each tester: Percentage sweet to percentage bitter to percentage another taste quality. Furthermore, the presence or absence of an after taste of the individual test compounds was determined. Each substance was tested twice with regard to five different determinations."}, "mice [14]": {"system": "mice", "assay": "Effect on reserpine-hypothermia in mice", "assay_type": "in vivo, Chbb:NMRI-mice", "procedure": "In analogy to Askew [Life Sci. 2, 275, (1963)] hypothermia was induced by s.c. administration of 3 mg/kg of reserpine in male Chbb:NMRI-mice (SPF) having a body weight of 20-26 gm. […] A control group received only the solvent p.o.; 1 to 4 hours after administration the temperature was measured every hour. The values given in the table are at average temperature values ±SD."}, "mice [15]": {"system": "mice", "assay": "Ability of mice to hold themselves in rotating cylinders (muscle relaxing and/or ataxic effect)", "assay_type": "in vivo, Chbb:NMRI-mice", "details": "400 mg/kg p.o.; for Animals which fell out: N = 10", "procedure": "In analogy to the method described by Young and Lewis [Science 105, 368 (1947)], 10 female Chbb:NMRI-mice (SPF) having a body weight of 20-26 gm were tested to determine whether they were able to hold themselves in rotating cylinders after oral administration of 400 mg/kg of substance in aqua dist. The measurements were carried out 30-60, 90-120, 210-240 and 270-300 minutes after administration."}, "[16]": {"details": "0.25, 2.5, 5 and 10 mg/plate, with and without activating system"}}, "data": [{"smiles": "O=C1NS(=O)(=O)c2cccc(O)c21.[Na]", "values": [{"measurement": "Cl^- excretion", "setting": "rats; 50 mg/kg p.o.", "result": 616.4, "unit": "Microval/kg"}, {"measurement": "K^+ excretion", "setting": "rats; 50 mg/kg p.o.", "result": 456.6, "unit": "Microval/kg"}, {"measurement": "Na^+ excretion", "setting": "rats; 50 mg/kg p.o.", "result": 456.6, "unit": "Microval/kg"}, {"measurement": "Urine", "setting": "rats; 50 mg/kg p.o.", "result": 45.7, "unit": "mL/kg"}, {"measurement": "Cl^- excretion", "setting": "rats; 100 mg/kg p.o.", "result": 325.5, "unit": "Microval/kg"}, {"measurement": "K^+ excretion", "setting": "rats; 100 mg/kg p.o.", "result": 321.5, "unit": "Microval/kg"}, {"measurement": "Na^+ excretion", "setting": "rats; 100 mg/kg p.o.", "result": 401.9, "unit": "Microval/kg"}, {"measurement": "Urine", "setting": "rats; 100 mg/kg p.o.", "result": 40.2, "unit": "mL/kg"}, {"measurement": "Cl^- excretion", "setting": "rats; 200 mg/kg p.o.", "result": 535.7, "unit": "Microval/kg"}, {"measurement": "K^+ excretion", "setting": "rats; 200 mg/kg p.o.", "result": 425.1, "unit": "Microval/kg"}, {"measurement": "Na^+ excretion", "setting": "rats; 200 mg/kg p.o.", "result": 467.6, "unit": "Microval/kg"}, {"measurement": "Urine", "setting": "rats; 200 mg/kg p.o.", "result": 42.5, "unit": "mL/kg"}, {"measurement": "effect on diuresis (in words)", "setting": "rats; 50, 100 and 200 mg/kg p.o.", "result": "does not show any effect on diuresis in rats"}, {"measurement": "stability of solid substance", "setting": "[1]", "result": "No changes could be detected either"}, {"measurement": "inhibiting effect", "setting": "[2]", "result": "did not show any inhibiting effect"}, {"measurement": "inhibiting effect", "setting": "Aspergillus niger [3]", "result": "did not show any inhibiting effect"}, {"measurement": "inhibiting effect", "setting": "[4]", "result": "did not show any inhibiting effect"}, {"measurement": "spontaneous mutation rate", "setting": "[5]; [16]", "result": "did not lead to an increase in the spontaneous mutation rate"}, {"measurement": "base substitutions", "setting": "[5]; TA 1535", "result": "does not induce base substitutions"}, {"measurement": "spontaneous mutation rate", "setting": "[6]; [16]", "result": "did not lead to an increase in the spontaneous mutation rate"}, {"measurement": "base substitutions", "setting": "[6]; TA 100", "result": "does not induce base substitutions"}, {"measurement": "spontaneous mutation rate", "setting": "[7]; [16]", "result": "did not lead to an increase in the spontaneous mutation rate"}, {"measurement": "frame-shift mutations", "setting": "[7]; TA 1538", "result": "does not induce base substitutions (S. typhimurium TA 1535, TA 100) or frame-shift mutations"}, {"measurement": "spontaneous mutation rate", "setting": "[8]; [16]", "result": "did not lead to an increase in the spontaneous mutation rate"}, {"measurement": "frame-shift mutations", "setting": "[8]; TA 1537", "result": "does not induce base substitutions (S. typhimurium TA 1535, TA 100) or frame-shift mutations"}, {"measurement": "spontaneous mutation rate", "setting": "[9]; [16]", "result": "did not lead to an increase in the spontaneous mutation rate"}, {"measurement": "frame-shift mutations", "setting": "[9]; TA 98", "result": "does not induce base substitutions (S. typhimurium TA 1535, TA 100) or frame-shift mutations"}, {"measurement": "inhibiting effect", "setting": "[10]", "result": "did not show any inhibiting effect"}, {"measurement": "inhibiting effect", "setting": "Aspergillus niger [11]", "result": "did not show any inhibiting effect"}, {"measurement": "inhibiting effect", "setting": "[12]", "result": "did not show any inhibiting effect"}, {"measurement": "solubility", "setting": "[13]", "result": "> 1 gm/10 ml of water"}, {"measurement": "water-solubility (in words)", "setting": "[13]", "result": "easily soluble in water"}, {"measurement": "purity of the taste", "setting": "taste testers", "result": "94-96%"}, {"measurement": "After taste", "setting": "taste testers; 1:10000, 10 determinations", "result": 5}, {"measurement": "Percentage bitter", "setting": "taste testers; 1:10000, 10 determinations", "result": 2, "unit": "%"}, {"measurement": "Percentage other taste", "setting": "taste testers; 1:10000, 10 determinations", "result": 2, "unit": "%"}, {"measurement": "Percentage sweet", "setting": "taste testers; 1:10000, 10 determinations", "result": 96, "unit": "%"}, {"measurement": "body temperature", "setting": "mice [14]; 100 mg/kg p.o., 1 hour", "result": 26.0, "unit": "°C"}, {"measurement": "body temperature", "setting": "mice [14]; 100 mg/kg p.o., 2 hours", "result": 26.7, "unit": "°C"}, {"measurement": "body temperature", "setting": "mice [14]; 100 mg/kg p.o., 3 hours", "result": 26.6, "unit": "°C"}, {"measurement": "body temperature", "setting": "mice [14]; 100 mg/kg p.o., 4 hours", "result": 26.8, "unit": "°C"}, {"measurement": "body temperature", "setting": "mice [14]; 400 mg/kg p.o. [sic], 1 hour", "result": 24.0, "unit": "°C"}, {"measurement": "body temperature", "setting": "mice [14]; 400 mg/kg p.o. [sic], 2 hours", "result": 24.7, "unit": "°C"}, {"measurement": "body temperature", "setting": "mice [14]; 400 mg/kg p.o. [sic], 3 hours", "result": 25.3, "unit": "°C"}, {"measurement": "body temperature", "setting": "mice [14]; 400 mg/kg p.o. [sic], 4 hours", "result": 25.9, "unit": "°C"}, {"measurement": "effect on reserpine-induced hypothermia (in words)", "setting": "mice [14]; 40 and 100 mg/kg p.o.", "result": "does not show an effect on hypothermia in mice induced by reserpine"}, {"measurement": "effect on holding ability of mice (in words)", "setting": "mice [15]", "result": "does not affect the holding ability of mice"}, {"measurement": "muscle relaxing or coordination inhibiting effect (in words)", "setting": "mice [15]", "result": "no muscle relaxing or coordination inhibiting effect"}, {"measurement": "Animals which fell out", "setting": "mice [15]; 30-60 min", "result": 2}, {"measurement": "Animals which fell out", "setting": "mice [15]; 90-120 min", "result": 2}, {"measurement": "Animals which fell out", "setting": "mice [15]; 210-240 min", "result": 1}, {"measurement": "Animals which fell out", "setting": "mice [15]; 270-300 min", "result": 0}]}]}
